This passage reports melting point results from patent US20010003121A1, “Novel compounds” (AstraZeneca UK Limited, priority 1997, published 2001).

Where a name gives a salt, the structure may show the parent alone.

For `Cc1ccc(C)c(C(=O)NCCC23CC4CC(CC(C4)C2)C3)c1` [Example 75, 2,5-Dimethyl-N-(2-[tricyclo[3.3.1.1^3,7]dec-1-yl]ethyl)-benzamide], the melting point (in general, the temperature, or range, at which the solid turns liquid) was 153 °C.
Next, `C[S+]([O-])c1ncccc1C(=O)NCC12CC3CC(CC(C3)C1)C2` (stereo not drawn) [Example 27, 2-(Methylsulphoxide)-N-(tricyclo[3.3.1.1^3,7]dec-1-methyl)-3-pyridine carboxamide]: 214 °C.
Under `O=C(NCC12CC3CC(CC(C3)C1)C2)c1cccc([N+](=O)[O-])c1Cl` [Example 52, 2-Chloro-3-nitro-N-(tricyclo[3.3.1.1^3,7]dec-1-ylmethyl)-benzamide] stands 185 °C; under `O=C(NCC12CC3CC(CC(C3)C1)C2)c1cc(NCCNCCO)ccc1Cl` (as salt: hydrochloride) [Example 71, 5-(N-(2-Hydroxyethyl)-2-aminoethyl)amino-2-chloro-N-(tricyclo[3.3.1.1^3,7]dec-1-ylmethyl)-benzamide, dihydrochloride], 143 °C (dec.); under `CN(C)CCNc1ccc(Cl)c(C(=O)NCC23CC4CC(CC(C4)C2)C3)c1` [Example 57, 2-Chloro-5-(N,N-dimethylamino)ethylamino-N-(tricyclo[3.3.1.1^3,7]dec-1-ylmethyl)-benzamide], 215 °C.
Take `NCCSc1ncccc1C(=O)NCC12CC3CC(CC(C3)C1)C2` (as salt: trifluoroacetate) [Example 31, 2-(2-Aminoethylthio)-N-(tricyclo[3.3.1.1^3,7]dec-1-ylmethyl)-3-pyridine carboxamide, trifluoroacetate]: the melting point was found to be 184 °C.
Next, `CN(C)CCNc1ncccc1C(=O)NCC12CC3CC(CC(C3)C1)C2` (as salt: hydrochloride) [Example 32, 2-(2-(N,N-Dimethylamino)ethylamino)-N-(tricyclo[3.3.1.1^3,7]dec-1-ylmethyl)-3-pyridine carboxamide, dihydrochloride]: 258 to 260 °C; `O=C(NCC12CC3CC(CC(C3)C1)C2)c1ccc2[nH]ccc2c1` [Example 28, N-(tricyclo[3.3.1.1^3,7]dec-1-methyl)-5-indole carboxamide]: 206 to 207 °C.
On to `O=C(NCC12CC3CC(CC(C3)C1)C2)c1cccc(Cl)c1` [Example 20, 3-Chloro-N-(tricyclo[3.3.1.1^3,7]dec-1-methyl)-benzamide], for which the melting point lay within 125 to 126 °C.
Next, `O=C(NCC12CC3CC(CC(C3)C1)C2)c1ccccc1C(F)(F)F` [Example 11, 2-(Trifluoromethyl)-N-(tricyclo[3.3.1.1^3,7]dec-1-methyl)-benzamide]: 165 to 167 °C.
Next, `COc1ccc(Sc2ncccc2C(=O)NCC23CC4CC(CC(C4)C2)C3)cc1` [Example 40, 2-(4-Methoxyphenylthio)-N-(tricyclo[3.3.1.1^3,7]dec-1-ylmethyl)-3-pyridine carboxamide]: 130 to 131 °C; `O=C(NCC12CC3CC(CC(C3)C1)C2)c1ccccc1I` [Example 8, 2-Iodo-N-(tricyclo[3.3.1.1^3,7]dec-1-methyl)-benzamide]: 194 to 195 °C.
Next, `O=C(O)COc1ccc(Sc2ncccc2C(=O)NCC23CC4CC(CC(C4)C2)C3)cc1` [Example 47, 3-[[(Tricyclo[3.3.1.1^3,7]dec-1-ylmethyl)amino]carbonyl]pyridyl-2-(4-phenylthio) oxyacetic acid]: 185 to 186 °C; `O=C(NCC12CC3CC(CC(Cl)(C3)C1)C2)c1ccccc1Cl` [Example 76, 2-Chloro-N-(3-chloro-tricyclo[3.3.1.1^3,7]dec-1-ylmethyl)-benzamide]: 153 °C; `COc1cc(OC)c(C)c(C(=O)NCC23CC4CC(CC(Cl)(C4)C2)C3)c1` [Example 79, 3,5-Dimethoxy-2-methyl-N-(3-chloro-tricyclo[3.3.1.1^3,7]dec-1ylmethyl)-benzamide]: 173 to 175 °C.
